Results on 26 compounds are retold here after patent US20100003250A1, “(2-ARYL-7H-PYRROLO[2,3-D]PYRIMIDIN-4-YL)MORPHOLINE COMPOUNDS, THEIR USE AS MTOR KINASE AND PI3 KINASE INHIBITORS, AND THEIR SYNTHESES” (Wyeth, priority 2008, published 2010).

What all share (format): biochemical
The target of one assay is PI3Kγ (Homo sapiens, UniProt P48736). The assay can be described thus: PI3K-gamma fluorescence polarization assay. The following applies: 20 μM PIP2, 25 μM ATP; read-out: PI3Kγ Median IC50. The protocol: PI3K-alpha and PI3K-gamma Fluorescence Polarization Assay Protocols
The reaction buffer was 20 mM HEPES pH 7.5, 2 mM MgCl2, 0.05% CHAPS, and 0.01% βME (added fresh). The substrate solution was 40 μM PIP2 (diC8, Echelon, Salt Lake City Utah cat # P-4508, 1 mM in water) and 50 μM ATP in the reaction buffer. Nunc 384-well black polypropylene fluorescent plates were used for PI3K assays. The assay is run by putting 9.5 μl of freshly diluted enzyme in the reaction buffer per well, adding 0.5 μl of diluted drug or DMSO, and mixing. Then 10 μl of the substrate solution is added to each well to start the reaction. A final concentration of 20 μM PIP2 and 25 μM ATP in the reaction was used. Reactions were allowed to proceed for 30-60 minutes at room temperature. After 30-60 minutes, 20 μl of a solution of 10 nM TAMRA detector (Red detector probe-Echelon) and 2.5 μM of GST-murineGRP (1.5 mg/ml in 17% glycerol) was added per well to stop the reaction. The resulting solution was mixed well and allowed to stand for 90-110 minutes before reading plate. Assay Plates were read on Perkin-Elmer Envision plate readers with appropriate filters for Tamra [BODIPY-TMRI(1,3,4,5)P4]. Data obtained were used to calculate enzymatic activity and enzyme inhibition by inhibitor compounds. It is important to keep Red probe solutions dark. This procedure is adapted from Echelon Biosciences Inc procedure for their PI3-Kinase fluorescence polarization activity Assay kit Product number K-1100.
(Polarisation of emitted light reports the rotation of a fluorescent probe.)

Another assay concerns the target T1, mTOR Kinase (FLAG-TOR) (Homo sapiens, UniProt P42345).
T1 construct: FLAG
The assay can be described thus: mTOR kinase assay, purified enzyme, DELFIA format. The following applies: 100 μM ATP, 1.25 μM His6-S6K; read-out: mTOR Kinase Median IC50.

Another assay deals with PI3Kα (Homo sapiens, UniProt P42336). The assay is described as follows: PI3K-alpha fluorescence polarization assay. The following applies: 20 μM PIP2, 25 μM ATP; read-out: PI3Kα Median IC50.
Chain of PI3Kα (P42336 whole entry, species assumed): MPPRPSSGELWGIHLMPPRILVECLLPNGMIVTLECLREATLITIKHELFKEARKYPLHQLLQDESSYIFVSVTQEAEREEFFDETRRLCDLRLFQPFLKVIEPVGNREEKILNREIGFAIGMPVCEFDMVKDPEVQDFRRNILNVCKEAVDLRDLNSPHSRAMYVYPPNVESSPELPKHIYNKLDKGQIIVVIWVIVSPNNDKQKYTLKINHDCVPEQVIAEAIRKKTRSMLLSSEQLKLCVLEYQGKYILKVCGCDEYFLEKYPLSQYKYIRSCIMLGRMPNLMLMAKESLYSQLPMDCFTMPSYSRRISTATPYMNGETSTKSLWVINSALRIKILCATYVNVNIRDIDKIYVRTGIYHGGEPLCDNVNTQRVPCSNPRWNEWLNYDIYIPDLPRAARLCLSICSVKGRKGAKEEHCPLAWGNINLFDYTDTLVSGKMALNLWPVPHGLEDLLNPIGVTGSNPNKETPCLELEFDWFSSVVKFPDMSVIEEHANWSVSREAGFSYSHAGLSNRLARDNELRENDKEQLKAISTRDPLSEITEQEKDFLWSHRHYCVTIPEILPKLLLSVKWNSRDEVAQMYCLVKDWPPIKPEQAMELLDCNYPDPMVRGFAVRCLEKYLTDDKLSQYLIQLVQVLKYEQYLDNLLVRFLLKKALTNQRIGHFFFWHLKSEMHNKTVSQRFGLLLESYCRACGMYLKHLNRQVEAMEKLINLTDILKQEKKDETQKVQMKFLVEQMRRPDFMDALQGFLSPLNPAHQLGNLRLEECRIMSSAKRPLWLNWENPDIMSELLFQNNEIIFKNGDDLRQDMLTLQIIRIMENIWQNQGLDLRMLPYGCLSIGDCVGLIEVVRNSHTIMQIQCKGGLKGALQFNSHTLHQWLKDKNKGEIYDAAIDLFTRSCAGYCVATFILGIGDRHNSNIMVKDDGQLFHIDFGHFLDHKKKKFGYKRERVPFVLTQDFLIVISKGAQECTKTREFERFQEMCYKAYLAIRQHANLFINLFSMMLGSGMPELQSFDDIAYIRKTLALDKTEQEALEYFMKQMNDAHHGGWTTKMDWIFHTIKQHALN
Chain of PI3Kα (P27986 whole entry partner, species assumed): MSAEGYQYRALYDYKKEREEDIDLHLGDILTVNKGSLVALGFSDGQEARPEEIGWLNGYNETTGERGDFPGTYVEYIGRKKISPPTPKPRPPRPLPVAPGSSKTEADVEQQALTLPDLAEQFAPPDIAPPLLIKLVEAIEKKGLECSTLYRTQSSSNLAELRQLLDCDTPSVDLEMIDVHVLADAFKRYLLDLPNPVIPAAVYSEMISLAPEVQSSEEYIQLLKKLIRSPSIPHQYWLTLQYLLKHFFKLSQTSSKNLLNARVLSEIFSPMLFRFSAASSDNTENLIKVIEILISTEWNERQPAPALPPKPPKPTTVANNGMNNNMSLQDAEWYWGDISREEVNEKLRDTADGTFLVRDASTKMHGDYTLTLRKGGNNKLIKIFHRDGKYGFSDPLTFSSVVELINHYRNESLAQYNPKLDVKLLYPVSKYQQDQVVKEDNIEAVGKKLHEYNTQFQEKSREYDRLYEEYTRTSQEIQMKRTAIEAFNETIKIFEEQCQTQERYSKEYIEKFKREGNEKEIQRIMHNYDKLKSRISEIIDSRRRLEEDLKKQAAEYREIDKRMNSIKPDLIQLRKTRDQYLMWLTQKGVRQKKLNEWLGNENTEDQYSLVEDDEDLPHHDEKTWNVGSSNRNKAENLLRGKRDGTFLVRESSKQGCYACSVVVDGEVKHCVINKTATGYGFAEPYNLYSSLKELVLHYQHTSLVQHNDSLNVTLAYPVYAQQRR

Chain of PI3Kγ (P48736 whole entry, species assumed): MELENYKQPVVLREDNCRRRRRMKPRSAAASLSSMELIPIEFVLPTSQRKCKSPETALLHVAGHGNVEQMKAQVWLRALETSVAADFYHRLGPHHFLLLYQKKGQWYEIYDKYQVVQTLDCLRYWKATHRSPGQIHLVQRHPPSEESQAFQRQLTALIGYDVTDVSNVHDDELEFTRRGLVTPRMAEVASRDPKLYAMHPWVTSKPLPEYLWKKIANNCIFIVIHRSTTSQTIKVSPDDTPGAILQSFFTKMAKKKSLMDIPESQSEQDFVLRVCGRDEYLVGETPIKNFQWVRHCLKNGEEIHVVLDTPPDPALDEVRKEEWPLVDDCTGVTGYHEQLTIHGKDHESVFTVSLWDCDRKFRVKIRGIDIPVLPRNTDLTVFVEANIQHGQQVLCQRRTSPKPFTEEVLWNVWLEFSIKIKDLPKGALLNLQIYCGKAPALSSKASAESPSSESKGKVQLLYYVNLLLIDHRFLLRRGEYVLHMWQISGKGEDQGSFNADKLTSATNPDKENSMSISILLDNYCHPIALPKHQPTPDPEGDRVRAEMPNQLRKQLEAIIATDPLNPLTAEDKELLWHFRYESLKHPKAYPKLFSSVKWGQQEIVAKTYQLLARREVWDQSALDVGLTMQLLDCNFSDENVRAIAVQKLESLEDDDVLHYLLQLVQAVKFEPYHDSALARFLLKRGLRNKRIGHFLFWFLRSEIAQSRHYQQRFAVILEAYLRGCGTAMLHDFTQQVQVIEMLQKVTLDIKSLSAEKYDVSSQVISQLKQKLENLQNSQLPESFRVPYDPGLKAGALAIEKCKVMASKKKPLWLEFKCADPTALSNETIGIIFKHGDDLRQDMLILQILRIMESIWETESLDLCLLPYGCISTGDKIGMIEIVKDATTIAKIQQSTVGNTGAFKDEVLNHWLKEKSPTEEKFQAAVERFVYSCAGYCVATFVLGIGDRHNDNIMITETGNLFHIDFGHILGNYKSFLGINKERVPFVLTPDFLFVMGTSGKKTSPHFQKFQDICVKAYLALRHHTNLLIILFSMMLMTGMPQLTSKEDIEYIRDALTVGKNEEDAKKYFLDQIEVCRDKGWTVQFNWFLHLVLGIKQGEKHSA

As to `O=C(Nc1ccncc1)Nc1ccc(-c2nc(N3CCOCC3)c3cc[nH]c3n2)cc1` [Compound 4, 1-[4-(4-morpholin-4-yl-7H-pyrrolo[2,3-d]pyrimidin-2-yl)phenyl]-3-pyridin-4-ylurea], the IC50 at PI3Kγ came to 0.065 µM.
In the case of `COC(Cn1ccc2c(N3CCOCC3)nc(-c3ccc(NC(=O)Nc4ccncc4)cc3)nc21)OC` [Compound 21, 1-{4-[7-(2,2-dimethoxyethyl)-4-morpholin-4-yl-7H-pyrrolo[2,3-d]pyrimidin-2-yl]phenyl}-3-pyridin-4-ylurea], the IC50 on PI3Kγ is 0.17 µM.
Turning to `CN1CCN(c2ccc(NC(=O)Nc3ccc(-c4nc(N5CCOCC5)c5ccn(CC(F)(F)F)c5n4)cc3)cc2)CC1` [Compound 39, 1-[4-(4-methylpiperazin-1-yl)phenyl]-3-{4-[4-morpholin-4-yl-7-(2,2,2-trifluoroethyl)-7H-pyrrolo[2,3-d]pyrimidin-2-yl]phenyl}urea], the IC50 on mTOR Kinase (FLAG-TOR) is 0.00195 µM; at PI3Kα it was 0.017 µM; on PI3Kγ it was 0.041 µM.
For `CN(C)CCN(C)C(=O)c1ccc(NC(=O)Nc2ccc(-c3nc(N4CCOCC4)c4ccn(CC(F)(F)F)c4n3)cc2)cc1` [Compound 51, N-[2-(dimethylamino)ethyl]-N-methyl-4-[({4-[4-morpholin-4-yl-7-(2,2,2-trifluoroethyl)-7H-pyrrolo[2,3-d]pyrimidin-2-yl]phenyl}carbamoyl)amino]benzamide], the IC50 is 0.00048 µM at mTOR Kinase (FLAG-TOR) and 0.014 µM on PI3Kγ.
For `CCn1ccc2c(N3CCOCC3)nc(-c3ccc(NC(=O)Nc4ccc(C(=O)N(C)CCN(C)C)cc4)cc3)nc21` [Compound 61, N-[2-(dimethylamino)ethyl]-4-({[4-(7-ethyl-4-morpholin-4-yl-7H-pyrrolo[2,3-d]pyrimidin-2-yl)phenyl]carbamoyl}amino)-N-methylbenzamide], the figures for the IC50 on mTOR Kinase (FLAG-TOR), at PI3Kα and at PI3Kγ were 0.00043 µM, less than 0.0019 µM and 0.02 µM, respectively.
Consider `CCn1cc(CN(C)C)c2c(N3CCOCC3)nc(-c3ccc(NC(=O)NC)cc3)nc21` [Compound 97, 1-(4-{5-[(dimethylamino)methyl]-7-ethyl-4-morpholin-4-yl-7H-pyrrolo[2,3-d]pyrimidin-2-yl}phenyl)-3-methylurea], for which the IC50 at mTOR Kinase (FLAG-TOR) is 0.047 µM; on PI3Kα, 1.89 µM; on PI3Kγ it was 12 µM.
Turning to `O=C(Nc1ccc(CO)cc1)Nc1ccc(-c2nc(N3CCOCC3)c3ccn(CC(F)(F)F)c3n2)cc1` [Compound 40, 1-[4-(hydroxymethyl)phenyl]-3-{4-[4-morpholin-4-yl-7-(2,2,2-trifluoroethyl)-7H-pyrrolo[2,3-d]pyrimidin-2-yl]phenyl}urea], the results for the IC50 on mTOR Kinase (FLAG-TOR), at PI3Kα and at PI3Kγ were 0.00109 µM, 0.012 µM and 0.08 µM, respectively.
For `CNC(=O)Nc1ccc(-c2nc(N3CCOCC3)c3ccn(CCN(C)C)c3n2)cc1` [Compound 17, 1-(4-{7-[2-(dimethylamino)ethyl]-4-morpholin-4-yl-7H-pyrrolo[2,3-d]pyrimidin-2-yl}phenyl)-3-methylurea], the IC50 at mTOR Kinase (FLAG-TOR) was determined as 0.033 µM; at PI3Kγ, 0.813 µM.
With `CN(C)CCn1ccc2c(N3CCOCC3)nc(-c3ccc(NC(=O)Nc4cccnc4)cc3)nc21` [Compound 9, 1-(4-{7-[2-(dimethylamino)ethyl]-4-morpholin-4-yl-7H-pyrrolo[2,3-d]pyrimidin-2-yl}phenyl)-3-pyridin-3-ylurea], the IC50 on mTOR Kinase (FLAG-TOR) turned out to be 0.00295 µM; on PI3Kγ, 0.102 µM.
As to `CN(C)CCn1ccc2c(N3CCOCC3)nc(-c3cccc(O)c3)nc21` [Compound 6, 3-{7-[2-(dimethylamino)ethyl]-4-morpholin-4-yl-7H-pyrrolo[2,3-d]pyrimidin-2-yl}phenol], the IC50 at mTOR Kinase (FLAG-TOR) was greater than 0.8 µM; on PI3Kγ it was 1.68 µM.
On to `Oc1cccc(-c2nc(N3CCOCC3)c3cc[nH]c3n2)c1` [Compound 2, 3-(4-morpholin-4-yl-7H-pyrrolo[2,3-d]pyrimidin-2-yl)phenol], for which, at PI3Kγ, the IC50 was found to be 0.338 µM.
`CCNC(=O)Nc1ccc(-c2nc(N3CCOCC3)c3ccn(CCN(C)C)c3n2)cc1` [Compound 16, 1-(4-{7-[2-(dimethylamino)ethyl]-4-morpholin-4-yl-7H-pyrrolo[2,3-d]pyrimidin-2-yl}phenyl)-3-ethylurea]: the values for the IC50 at mTOR Kinase (FLAG-TOR) and on PI3Kγ were 0.03 µM and 0.538 µM, respectively.
With `CN(C)CCn1ccc2c(N3CCOCC3)nc(-c3ccc(NC(=O)Nc4ccccn4)cc3)nc21` [Compound 11, 1-(4-{7-[2-(dimethylamino)ethyl]-4-morpholin-4-yl-7H-pyrrolo[2,3-d]pyrimidin-2-yl}phenyl)-3-pyridin-2-ylurea], on PI3Kγ, the IC50 was 0.626 µM.
In the case of `O=C(Nc1ccncc1)Nc1ccc(-c2nc(N3CCOCC3)c3ccn(CCN4CCNCC4)c3n2)cc1` [Compound 29, 1-{4-[4-morpholin-4-yl-7-(2-piperazin-1-ylethyl)-7H-pyrrolo[2,3-d]pyrimidin-2-yl]phenyl}-3-pyridin-4-ylurea], the IC50 on PI3Kγ amounted to 0.036 µM.
Regarding `O=C(Nc1ccncc1)Nc1ccc(-c2nc(N3CCOCC3)c3ccn(CCN4CCCC4)c3n2)cc1` [Compound 23, 1-{4-[4-morpholin-4-yl-7-(2-pyrrolidin-1-ylethyl)-7H-pyrrolo[2,3-d]pyrimidin-2-yl]phenyl}-3-pyridin-4-ylurea], on PI3Kγ, the IC50 was determined as 0.37 µM.
As for `O=CCn1ccc2c(N3CCOCC3)nc(-c3ccc(NC(=O)Nc4ccncc4)cc3)nc21` [Compound 22, 1-{4-[4-morpholin-4-yl-7-(2-oxoethyl)-7H-pyrrolo[2,3-d]pyrimidin-2-yl]phenyl}-3-pyridin-4-ylurea], the IC50 at PI3Kγ was determined as 0.007 µM.
Take `CN(C)C1CCN(C(=O)c2ccc(NC(=O)Nc3ccc(-c4nc(N5CCOCC5)c5ccn(CC(F)(F)F)c5n4)cc3)cc2)CC1` [Compound 57, 1-(4-{[4-(dimethylamino)piperidin-1-yl]carbonyl}phenyl)-3-{4-[4-morpholin-4-yl-7-(2,2,2-trifluoroethyl)-7H-pyrrolo[2,3-d]pyrimidin-2-yl]phenyl}urea]: the IC50 on mTOR Kinase (FLAG-TOR) was 0.0017 µM; on PI3Kγ, 0.027 µM.
Consider `CN(C)CCn1ccc2c(N3CCOCC3)nc(-c3ccc(NC(=O)Nc4ccncc4)cc3)nc21` [Compound 12, 1-(4-{7-[2-(dimethylamino)ethyl]-4-morpholin-4-yl-7H-pyrrolo[2,3-d]pyrimidin-2-yl}phenyl)-3-pyridin-4-ylurea], for which the IC50 at PI3Kα turned out to be 0.011 µM; on PI3Kγ it was 0.036 µM.
For the compound `CN(C)CCn1ccc2c(N3CCOCC3)nc(-c3ccc(NC(=O)Nc4ccc(F)cc4)cc3)nc21` [Compound 13, 1-(4-{7-[2-(dimethylamino)ethyl]-4-morpholin-4-yl-7H-pyrrolo[2,3-d]pyrimidin-2-yl}phenyl)-3-(4-fluorophenyl)urea], the IC50 at mTOR Kinase (FLAG-TOR) turned out to be 0.00775 µM; at PI3Kγ, 0.176 µM.
Turning to `OCc1cccc(-c2nc(N3CCOCC3)c3cc[nH]c3n2)c1` [Compound 1, [3-(4-morpholin-4-yl-7H-pyrrolo[2,3-d]pyrimidin-2-yl)phenyl]methanol], the IC50 at PI3Kγ came out at 0.752 µM.
Take `CN(C)CCNCCn1ccc2c(N3CCOCC3)nc(-c3ccc(NC(=O)Nc4ccncc4)cc3)nc21` [Compound 27, 1-{4-[7-(2-{[2-(dimethylamino)ethyl]amino}ethyl)-4-morpholin-4-yl-7H-pyrrolo[2,3-d]pyrimidin-2-yl]phenyl}-3-pyridin-4-ylurea]: the IC50 at PI3Kγ was 0.424 µM.
Take `O=C(Nc1ccncc1)Nc1ccc(-c2nc(N3CCOCC3)c3ccn(CCO)c3n2)cc1` [Compound 34, 1-{4-[7-(2-hydroxyethyl)-4-morpholin-4-yl-7H-pyrrolo[2,3-d]pyrimidin-2-yl]phenyl}-3-pyridin-4-ylurea]: the results for the IC50 at PI3Kα and at PI3Kγ were 0.004 µM and 0.04 µM, respectively.
Regarding `O=C(Nc1ccncc1)Nc1ccc(-c2nc(N3CCOCC3)c3ccn(CC(F)(F)F)c3n2)cc1` [Compound 36, 1-{4-[4-morpholin-4-yl-7-(2,2,2-trifluoroethyl)-7H-pyrrolo[2,3-d]pyrimidin-2-yl]phenyl}-3-pyridin-4-ylurea], on PI3Kγ, the IC50 stood at 0.063 µM.
Turning to `CN(C)CCn1ccc2c(N3CCOCC3)nc(-c3cccc(CO)c3)nc21` [Compound 7, (3-{7-[2-(dimethylamino)ethyl]-4-morpholin-4-yl-7H-pyrrolo[2,3-d]pyrimidin-2-yl}phenyl)methanol], the results for the concentration for half-maximal inhibition (IC50) on mTOR Kinase (FLAG-TOR) and at PI3Kγ were greater than 0.8 µM and 0.712 µM, respectively.
Consider `O=C(Nc1ccncc1)Nc1ccc(-c2nc(N3CCOCC3)c3ccn(CCN4CCCCC4)c3n2)cc1` [Compound 24, 1-{4-[4-morpholin-4-yl-7-(2-piperidin-1-ylethyl)-7H-pyrrolo[2,3-d]pyrimidin-2-yl]phenyl}-3-pyridin-4-ylurea], for which the 50% inhibitory concentration (IC50) on PI3Kγ amounted to 0.774 µM.
In the case of `CN1CCN(CCn2ccc3c(N4CCOCC4)nc(-c4ccc(NC(=O)Nc5ccncc5)cc4)nc32)CC1` [Compound 28, 1-(4-{7-[2-(4-methylpiperazin-1-yl)ethyl]-4-morpholin-4-yl-7H-pyrrolo[2,3-d]pyrimidin-2-yl}phenyl)-3-pyridin-4-ylurea], the IC50 at mTOR Kinase (FLAG-TOR) amounted to 0.024 µM; at PI3Kγ it was 0.317 µM.

One may read the IC50 as the concentration at which inhibition is half-maximal.
